From patent US5773444A, “Quinazolines as inhibitors of endothelin converting enzyme” (Warner-Lambert Company, priority 1997, dated 1998)
Counter-ions that a name gives are not always drawn. Non-standard residues stand in square brackets, D forms with d. Residues, ends and D or L forms follow the SMILES beside them. *: point of attachment. Sta = CC(C)C[C@H](N)[C@@H](O)CC(=O)O; Isovaleryl = CC(C)CC(=O)*

T1: endothelin converting enzyme (ECE) (Homo sapiens, UniProt P42892)
T1 construct: ECE was partially purified from EA.hy926 grown in 150 roller; endogenous in cells; host or cells: EA.hy926 (human umbilical vein endothelial cells fused with A549); detergent-solubilised membranes, RCA-I lectin eluate
T1 sequence (P42892 whole entry, looked up): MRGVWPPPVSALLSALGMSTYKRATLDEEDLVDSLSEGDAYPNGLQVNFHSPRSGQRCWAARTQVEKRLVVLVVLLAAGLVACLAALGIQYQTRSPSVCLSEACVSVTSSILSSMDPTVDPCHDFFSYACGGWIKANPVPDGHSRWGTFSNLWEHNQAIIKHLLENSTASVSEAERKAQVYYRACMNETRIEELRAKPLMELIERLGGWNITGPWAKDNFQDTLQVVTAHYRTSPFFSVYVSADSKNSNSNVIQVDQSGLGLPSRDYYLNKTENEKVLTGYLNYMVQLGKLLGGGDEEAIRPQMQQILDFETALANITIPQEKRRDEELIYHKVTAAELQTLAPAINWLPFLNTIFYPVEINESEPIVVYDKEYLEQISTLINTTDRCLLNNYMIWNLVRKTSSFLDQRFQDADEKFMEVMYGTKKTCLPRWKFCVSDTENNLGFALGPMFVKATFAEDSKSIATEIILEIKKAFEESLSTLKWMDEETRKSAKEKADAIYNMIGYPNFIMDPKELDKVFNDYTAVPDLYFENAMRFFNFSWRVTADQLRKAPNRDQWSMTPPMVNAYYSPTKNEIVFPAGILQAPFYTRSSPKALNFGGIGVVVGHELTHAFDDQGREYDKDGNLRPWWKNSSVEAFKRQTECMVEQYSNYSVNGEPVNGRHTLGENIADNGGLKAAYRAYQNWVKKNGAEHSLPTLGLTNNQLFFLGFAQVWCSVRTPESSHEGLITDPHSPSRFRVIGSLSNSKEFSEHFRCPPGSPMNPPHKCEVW

B1: soybean trypsin inhibitor: soybean trypsin inhibitor (protein, UniProt P01070 25-205, looked up)
Trypsin inhibitor A: DFVLDNEGNPLENGGTYYILSDITAFGGIRAAPTGNERCPLTVVQSRNELDKGIGTIISSPYRIRFIAEGHPLSLKFDSFAVIMLCVGIPTEWSVVEDLPEGPAVKIGENKDAMDGWFRLERVSDDEFNNYKLVFCPQQAEDDKCGDIGISIDHDDGTRRLVVSKNKPLVVQFQKLDKESL

Biological target: T2, endothelin converting enzyme (ECE) (Homo sapiens, UniProt P42892)
T2 construct: ECE was partially purified from EA.hy926 grown in 150 roller; endogenous in cells; host or cells: EA.hy926 (human umbilical vein endothelial cells fused with A549); detergent-solubilised membranes, RCA-I lectin eluate
Assay: Cell-based assay (ET-1 level in medium of EA.hy926 cells by RIA)
Details: read-out: IC50 (Table IV, cell-based assay)
Procedure: A permanent human cell line (EA.hy926), derived by fusing human umbilical vein endothelial cells with the permanent human cell line A549 (derived from a human lung carcinoma), was cultured as described, except that the medium also contained HAT supplements (100 μM hypoxanthine, 0.4 μM aminopterin, 16 μM thymidine). Edgell, C.-J. S., McDonald, C. C., and Graham, J. B. (1983) Proc. Natl. Acad. Sci. USA 80, 3734-3737. Cells from passages 40 to 50 were used. Subcultures were prepared by treating confluent cells with trypsin (0.5%) and seeded either onto 24 well plates for a cell-based assay or onto roller bottles for a partial purification of the enzyme.
ET-1 was measured by radioimmunoassay (RIA) as described previously with minor modifications. Ahn, K., Beningo, K., Olds, G., and Hupe, D. (1992) Proc. Nat. Acad. Sci. USA, 89, 8606-8610. Briefly, the RIA mixture (250 μl) contained the antibody against ET-1, an ET-1 sample, and [^125 I] ET-1 (15000 cpm) in buffer D. For the analysis of ET-1 from cell based assays, the final 6% bovine serum albumin was added. […] The amount of immunoreactive (ir) ET-1 was measured by counting the supernatant and determined from the standard curve. […]
EAhy926 cells (0.2-4×10^4) were seeded into 24-plates and cultures as described above. […] The ET-1 level from these samples were measured by RIA previously described. […]

IC50	Molecule
6.6 ± 1.5 µM	CCN1CCCC(Nc2nc(C(Cl)(Cl)Cl)nc3ccc(I)cc23)C1 (stereo not drawn) [Example 1, (1-Ethyl-piperidin-3-yl)-(6-iodo-2-trichloromethyl-quinazolin-4-yl)-amine, Monohydrochloride]
14.4 ± 1.1 µM	CCN1CCCC(Nc2nc(C(Cl)(Cl)Cl)nc3ccc(Cl)cc23)C1 (stereo not drawn) [Example 3, (1-Ethyl-piperidin-3-yl)-(6-chloro-2-trichloromethyl-quinazolin-4-yl)-amine]

System: neutral endopeptidase 24.11 (NEP 24.11)
Assay: NEP 24.11 inhibition under ECE assay conditions
Type: biochemical, human
Details: 100 μM thiorphan or 100 nM phosphoramidon
Description: The cell line, EA.hy926, contains neutral endopeptidase 24.11 (NEP 24.11) which also cleaves big ET-1 to ET-1 and c-terminal fragment (manuscript submitted). […] All the data were obtained in the linear range of time-course curves.

NEP 24.11 inhibition	Molecule
completely inhibited	O=C(O)CNC(=O)C(CS)Cc1ccccc1 (stereo not drawn) [thiorphan]

System: ET-1 production in cultured bovine aortic endothelial cells
Assay: not given
Details: intracellular accumulation of pepstatin; cited from earlier work

Molecule	inhibition of ET-1 production
CC(C)CC(=O)N[C@H](C(=O)N[C@H](C(=O)N[C@@H](CC(C)C)[C@@H](O)CC(=O)N[C@@H](C)C(=O)N[C@@H](CC(C)C)[C@@H](O)CC(=O)O)C(C)C)C(C)C [pepstatin] (Isovaleryl-VV[Sta]A[Sta]-OH)	did not inhibit ET-1 production

Biological target: T1, endothelin converting enzyme (ECE)
Assay: ECE assay (partially purified ECE from EA.hy926, ET-1 production by RIA)
Type: biochemical
Details: partially purified ECE from EA.hy926

inhibition of the enzyme (in words)	Molecule
not inhibited	B1

Biological target: T2, endothelin converting enzyme (ECE)
Assay: as above
Type: biochemical
Details: not given

Molecule	inhibition of the enzyme (in words)
O=C(O)CN(CCN(CC(=O)O)CC(=O)O)CC(=O)O [EDTA]	inhibited

Same assay, conditions: 10 μM big ET-1, pH 7.0, 1.5 hours at 37° C., 3% DMSO; read-out: IC50 (Table III, Biological Activity of Compounds of the Present Invention)

IC50	Molecule
4.2 ± 0.5 µM	CCN1CCCC(Nc2nc(C(Cl)(Cl)Cl)nc3ccc(I)cc23)C1 (stereo not drawn) [Example 1, (1-Ethyl-piperidin-3-yl)-(6-iodo-2-trichloromethyl-quinazolin-4-yl)-amine, Monohydrochloride]
9.2 ± 0.8 µM	CCN1CCCC(Nc2nc(-c3ccccc3)nc3ccc(I)cc23)C1 (stereo not drawn) [Example 2, (1-Ethyl-piperidin-3-yl)-(6-iodo-2-phenyl-quinazolin-4-yl)-amine]
14.1 ± 1.5 µM	CCN1CCCC(Nc2nc(C(Cl)(Cl)Cl)nc3ccc(Cl)cc23)C1 (stereo not drawn) [Example 3, (1-Ethyl-piperidin-3-yl)-(6-chloro-2-trichloromethyl-quinazolin-4-yl)-amine]
29.1 ± 5.4 µM	CCN1CCCC(Nc2nc(C(Cl)(Cl)Cl)nc3ccc([N+](=O)[O-])cc23)C1 (stereo not drawn) [Example 4, (1-Ethyl-piperidin-3-yl)-(6-nitro-2-trichloromethyl-quinazolin-4-yl)-amine]
17.6 ± 1.7 µM	CCN1CCCC(Nc2nc(C(C)(C)C)nc3ccc(I)cc23)C1 (stereo not drawn) [Example 5, (2-tert-Butyl-6-iodo-quinazolin-4-yl)-(1-ethyl-piperidin-3-yl)-amine]
29.6 ± 6 µM	NCCNc1nc(C(Cl)(Cl)Cl)nc2ccc(I)cc12 [Example 6, N-(6-Iodo-2-trichloromethyl-quinazolin-4-yl)-ethane-1,2-diamine hydrochloride]
22.1 ± 4.8 µM	CNCCNc1nc(C(Cl)(Cl)Cl)nc2ccc(I)cc12 [Example 7, N-(6-Iodo-2-trichloromethyl-quinazolin-4-yl)-N^1-methyl-ethane-1,2-diamine]
11.1 ± 2.7 µM	CN(C)CCNc1nc(C(Cl)(Cl)Cl)nc2ccc(I)cc12 [Example 8, N-(6-Iodo-2-trichloromethyl-quinazolin-4-yl)-N^1,N^1-dimethyl-ethane-1,2-diamine]
3.7 ± 1.6 µM	ClC(Cl)(Cl)c1nc(NCCN2CCCCC2)c2cc(I)ccc2n1 [Example 9]
25.4 ± 4.2 µM	ClC(Cl)(Cl)c1nc(NCCN2CCOCC2)c2cc(I)ccc2n1 [Example 10, (6-Iodo-2-trichloromethyl-quinazolin-4-yl)-(2-morpholin-4-yl-ethyl)-amine]
12.4 ± 1 µM	CCN1CCCC1CNc1nc(C(Cl)(Cl)Cl)nc2ccc(I)cc12 (stereo not drawn) [Example 11, (1-Ethyl-pyrrolidin-2-yl-methyl)-(6-iodo-2-trichloromethyl-quinazolin-4-yl)-amine]
66.6 ± 11.8 µM	CC(C)N(CCNc1nc(C(Cl)(Cl)Cl)nc2cc(Cl)ccc12)C(C)C [Example 13, N-(7-Chloro-2-trichloromethyl-quinazolin-4-yl)-N',N'-diisopropyl-ethane-1,2-diamine]
75.5 ± 11.6 µM	O=C(O)CN1CCCC(Nc2nc(C(Cl)(Cl)Cl)nc3ccc(I)cc23)C1 (stereo not drawn) [Example 14, [3-(6-Iodo-2-trichloromethyl-quinazolin-4-yl-amino)-piperidin-1-yl]-acetic acid potassium salt]
8.4 ± 1.4 µM	CN(C)CC(CN(C)C)Nc1nc(C(Cl)(Cl)Cl)nc2ccc(I)cc12 [Example 16, N'-(6-Iodo-2-trichloromethyl-quinazolin-4-yl)-N,N,N",N"-tetramethyl-propane-1,2,3-triamine monohydrochloride]
2.3 ± 0.3 µM	CCN1CCCC(Nc2nc(C(F)(F)F)nc3ccc(I)cc23)C1 (stereo not drawn) [Example 17, (1-Ethyl-piperidin-3-yl)-(6-iodo-2-trifluoromethyl-quinazolin-4-yl)-amine]

Molecule	IC50
ClC(Cl)(Cl)c1nc(NC2CN3CCC2CC3)c2cc(I)ccc2n1 (stereo not drawn) [Example 12, (1 -Aza-bicyclo[2,2,2,]oct-3-yl)-(6-iodo-2-trichloromethyl-quinazolin-4-yl)-amine]	11.1 ± 1.7 µM

Same assay, conditions: 100 μM thiorphan or 100 nM phosphoramidon

effect on ECE activity at NEP-blocking concentration	Molecule
without affecting the ECE activity	O=C(O)CNC(=O)C(CS)Cc1ccccc1 (stereo not drawn) [thiorphan]

Same assay, conditions: partially purified ECE from EA.hy926

inhibition of the enzyme (in words)	Molecule
inhibited	c1cnc2c(c1)ccc1cccnc12 [1,10-phenanthroline]
inhibited	O=C(O)CN(CCOCCOCCN(CC(=O)O)CC(=O)O)CC(=O)O [EGTA]
not inhibited	CC(C)C[C@H](NC(=O)[C@H]1O[C@@H]1C(=O)O)C(=O)NCCCCN=C(N)N [Example E-64]
not inhibited	CC(C)C[C@H](NC(=O)[C@@H](O)[C@H](N)Cc1ccccc1)C(=O)O [bestatin]
not inhibited	C[C@H](CS)C(=O)N1CCC[C@H]1C(=O)O [captopril]
not inhibited	C[C@H](N[C@@H](CCc1ccccc1)C(=O)O)C(=O)N1CCC[C@H]1C(=O)O [enalaprilat]
not inhibited	O=C(O)CNC(=O)C(CS)Cc1ccccc1 (stereo not drawn) [thiorphan]

Molecule	inhibition of the enzyme (in words)
CC(=O)N[C@@H](CC(C)C)C(=O)N[C@@H](CC(C)C)C(=O)N[C@H](C=O)CCCNC(=N)N [leupeptin]	not inhibited
CC(C)CC(=O)N[C@H](C(=O)N[C@H](C(=O)N[C@@H](CC(C)C)[C@@H](O)CC(=O)N[C@@H](C)C(=O)N[C@@H](CC(C)C)[C@@H](O)CC(=O)O)C(C)C)C(C)C [pepstatin A] (Isovaleryl-VV[Sta]A[Sta]-OH)	not inhibited
O=S(=O)(F)Cc1ccccc1 [phenylmethlysulfonyl fluoride]	not inhibited
